The values below come from BindingDB's records for doi:10.1021/jm9707838 (Smithkline Beecham, 1998).

One may read the IC50 as the concentration that inhibits the measured activity by half. Read a high IC50 as lower potency.

A short description of assay [1]: Inhibition of V-ATPase-driven proton transport in membrane vesicles derived from chicken osteoclasts (cOc).
Assay [2] can be described thus: Inhibition of V-ATPase-driven proton transport in membrane vesicles derived from bovine chromaffin granules (bCG).
Assay [3] can be described thus: Inhibition of V-ATPase-driven proton transport in membrane vesicles derived from chicken osteoclasts (cOc).
Assay [4] in a line: Inhibition of V-ATPase-driven proton transport in membrane vesicles derived from bovine chromaffin granules (bCG).

As to `CO/C1=C\C(C)=C\[C@@H](C)C(=O)[C@@H](C)C/C(C)=C/C=C/[C@H](OC)[C@@H]([C@@H](C)[C@@H](O)[C@H](C)C(=O)O)OC1=O` [(2S,3R,4S)-4-((4E,6E,12E,14Z)-(2R,3S,9S,11R)-3,15-Dimethoxy-7,9,11,13-tetramethyl-10,16-dioxo-oxacyclohexadeca-4,6,12,14-tetraen-2-yl)-3-hydroxy-2-methyl-pentanoic acid], the IC50 in assay [1] and in assay [2] was above 10 µM in each case.
`CO/C1=C\C(C)=C\[C@@H](C)[C@@H](O)[C@@H](C)C/C(C)=C/C=C/[C@H](OC)[C@@H]([C@@H](C)[C@@H](O)[C@H](C)C(=O)O)OC1=O` [(2S,3R,4S)-3-Hydroxy-4-((4E,6E,12E,14Z)-(2R,3S,9S,10S,11R)-10-hydroxy-3,15-dimethoxy-7,9,11,13-tetramethyl-16-oxo-oxacyclohexadeca-4,6,12,14-tetraen-2-yl)-2-methyl-pentanoic acid]: the IC50 in assay [1] and in assay [2] was above 10 µM each time.
Take `COC(=O)[C@@H](C)[C@H](O)[C@H](C)[C@H]1OC(=O)/C(OC)=C/C(C)=C/[C@@H](C)C(=O)[C@@H](C)C/C(C)=C/C=C/[C@@H]1OC` [(2S,3R,4S)-4-((4E,6E,12E,14Z)-(2R,3S,9S,11R)-3,15-Dimethoxy-7,9,11,13-tetramethyl-10,16-dioxo-oxacyclohexadeca-4,6,12,14-tetraen-2-yl)-3-hydroxy-2-methyl-pentanoic acid methyl ester]: the IC50 in assay [1] and in assay [2] was above 10 µM in each case.
As for `CO/C1=C\C(C)=C\[C@@H](C)C(=O)[C@@H](C)C/C(C)=C/C=C/[C@H](OC)[C@@H]([C@@H](C)[C@@H](O)[C@H](C)[C@@]2(O)C[C@@H](C(=O)Oc3ccccc3)[C@H](C)[C@@H](C(C)C)O2)OC1=O` [2-[3-(3,15-Dimethoxy-7,9,11,13-tetramethyl-10,16-dioxo-oxacyclohexadeca-4,6,12,14-tetraen-2-yl)-2-hydroxy-1-methyl-butyl]-2-hydroxy-6-isopropyl-5-methyl-tetrahydro-pyran-4-carboxylic acid phenyl ester], the IC50 in assay [3] and in assay [4] was above 10 µM each time.
